Article PMC7155171, “Probing the Open Global Health Chemical Diversity Library for Multistage-Active Starting Points for Next-Generation Antimalarials” (ACS Infectious Diseases, 2020)
Like-named read-outs stand apart in the source and are kept apart here.

Key:
[1] = test system: P. falciparum (NF54) stage V gametocytes; assay: Stage V gametocyte viability assay (MitoTracker Red CMXRos high content imaging); format: cell-based, Plasmodium falciparum; details: Plasmodium falciparum; for inhibition at 2 µM: read-out: Stg V Gam primary screen: Inhibition % (2uM) (n=2)
[2] = HepG2 cytotoxicity screening (CellTiter-Glo); details: human, uninfected HepG2-A16-CD81 (EGFP) hepatocytes
[3] = test system: HepG2-A16-CD81 hepatocytes; assay: HepG2 cytotoxicity screening (CellTiter-Glo); details: for HepG2 cytotoxicity 12pt dose response: Maximum inhibition (%): 12pt dose response
[4] = target: recombinant firefly luciferase (Photinus pyralis, UniProt P08659); assay: biochemical; details: dose response; for Emax: maximum inhibition, read-out: rLuc inhibition dose response: Maximum inhibition (%); for IC50: read-out: rLuc inhibition dose response: IC50
Chain of recombinant firefly luciferase (P08659 whole entry): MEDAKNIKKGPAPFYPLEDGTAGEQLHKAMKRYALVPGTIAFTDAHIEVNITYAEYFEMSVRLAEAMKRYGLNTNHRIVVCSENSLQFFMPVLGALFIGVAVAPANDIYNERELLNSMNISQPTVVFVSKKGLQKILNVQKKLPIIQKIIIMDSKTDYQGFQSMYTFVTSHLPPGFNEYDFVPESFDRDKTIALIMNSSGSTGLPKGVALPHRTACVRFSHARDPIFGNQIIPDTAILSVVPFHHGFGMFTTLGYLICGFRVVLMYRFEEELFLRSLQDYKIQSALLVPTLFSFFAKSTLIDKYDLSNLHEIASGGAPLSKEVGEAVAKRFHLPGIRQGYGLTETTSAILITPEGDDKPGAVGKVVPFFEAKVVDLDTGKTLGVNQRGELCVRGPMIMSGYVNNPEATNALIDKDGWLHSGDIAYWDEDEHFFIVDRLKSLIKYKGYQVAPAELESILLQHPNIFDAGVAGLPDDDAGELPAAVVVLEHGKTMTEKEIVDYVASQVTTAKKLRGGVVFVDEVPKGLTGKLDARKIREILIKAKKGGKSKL

[5] = test system: P. berghei liver stage (PbLuc); assay: P. berghei luciferase liver stage (PbLuc) assay in HepG2-A16-CD81 hepatocytes; format: cell-based, Plasmodium berghei; details: Plasmodium berghei; for IC50: HepG2-A16-CD81, 12pt dose response, read-out: PbLuc 12pt dose response: IC50; for Emax: HepG2-A16-CD81, 48 h, 12pt dose response, maximum inhibition
[6] = NF54, read-out: Stg V Gam dose response IC50 (µM) (n=3), 10-point dose response, n=3, 72 h
[7] = NF54, 72 h, read-out: Stg V Gam dose response IC50 (µM) (n=3), 10-point dose response, n=3, 72 h

SMILES	IC50 [1, 6] [µM]	inhibition at 2 µM ([1]; NF54, Table S6, 2uM, n=2, 72 h) [%]	IC50 [1, 7] [µM]	inhibition at 2 µM ([1]; NF54, 72 h) [%]	IC50 [2] [µM]	inhibition at 2 µM [2] [%]	inhibition at 10 µM [2] [%]	HepG2 cytotoxicity 12pt dose response: Maximum inhibition (%) [3] [%]	Emax [4] [%]	IC50 [4] [µM]	IC50 [5] [µM]	Emax [5] [%]	HepG2 Cytotoxicity primary screen (2uM): % Inhibition [3] [%]
CCCc1nc2c(c(C)c(C)n2CCN(C)C)c(N)c1CC [DDD01026700, CCCC1=C(CC)C(N)=C2C(C)=C(C)N(CCN(C)C)C2=N1]	0.97	49.2	–	–	–	–	–	–	–	–	–	–	–
CCc1c(-c2ccccc2)nc2c(c(C)c(C)n2CCN(C)C)c1N [DDD01026714, CCC1=C(N=C2N(CCN(C)C)C(C)=C(C)C2=C1N)C1=CC=CC=C1]	–	–	0.868	56.1	–	–	–	–	–	–	–	–	–
CC(C)Nc1nc2c(c(NC3CC3)n1)CCN(C1CCOCC1)CC2 [DDD01029612, CC(C)NC1=NC2=C(CCN(CC2)C2CCOCC2)C(NC2CC2)=N1]	–	–	4.48	57	–	–	–	–	–	–	–	–	–
Cc1cccc(CN2Cc3[nH]nc(COCCO)c3C2)n1 [DDD01030906, CC1=CC=CC(CN2CC3=C(C2)C(COCCO)=NN3)=N1]	–	–	1.47	82.1	–	–	–	–	–	–	–	–	–
CC(C)Nc1nc2c(c(NC3CC3)n1)CCN(Cc1nccn1C)CC2 [DDD01031405, CC(C)NC1=NC2=C(CCN(CC3=NC=CN3C)CC2)C(NC2CC2)=N1]	–	–	2.65	58.7	–	–	–	–	–	–	–	–	–
Cc1cccc(CN2C[C@@H]3COC[C@H](NS(C)(=O)=O)[C@@H]3C2)n1 [DDD01032715, CC1=CC=CC(CN2C[C@@H]3COC[C@H](NS(C)(=O)=O)[C@@H]3C2)=N1]	1.54	70.6	–	–	–	–	–	–	–	–	–	–	–
CCOC(=O)N1CCN(c2nc(CCN)nc3sc(C)c(C)c23)CC1 [UCSD-0834429]	–	–	–	–	> 25	-5.69	-49.3	28	5.96	> 25	8.74	87.7	–
CCCc1cncnc1N1CCC(NCc2cc3ccccc3[nH]2)CC1 [UCSD-0834906]	–	–	–	–	> 25	7.01	–	32.8	31.4	> 25	1.84	97.5	–
COc1cccc(-c2noc3c2CN(c2ncnc4c2CCC4)CC3)c1 [UCSD-0837523]	–	–	–	–	8.51	-0.62	–	52	15.5	> 25	5.79	84.4	–
Cc1csc2ncnc(N3CCC(Cn4cc(C(C)(C)N)nn4)CC3)c12 [UCSD-0838044]	–	–	–	–	> 25	–	–	46.5	21.9	> 25	11.4	71.7	4.60
COc1ccc2cc(C3CN(C(=O)N(C)C)CCO3)ccc2c1 (centres unmarked) [UCSD-0838135]	–	–	–	–	> 25	-0.4	–	6.4	91.8	3.45	< 0.000141	82.4	–
COCc1noc(-c2ccc(N3CCCCC3CO)nc2)n1 (centres unmarked) [UCSD-0838277]	–	–	–	–	> 25	-1.51	–	0.196	73.7	6.29	< 0.000141	82.5	–
Nc1nccc(N2CCCC(CO)(CCOc3ccccc3)C2)n1 (centres unmarked) [UCSD-0838947]	–	–	–	–	> 25	-2.96	–	51.4	8.22	> 25	6.46	89.7	–
Nc1nc(CCC(=O)N2CCOC(CC3CCCCC3)C2)cs1 (centres unmarked) [UCSD-0838977]	–	–	–	–	> 25	–	–	8.43	7.71	> 25	15	93.7	-10.55
CC(=O)c1ccc(N2CCC(CO)(CCOc3ccccc3)CC2)nc1 [UCSD-0839049]	–	–	–	–	> 25	–	–	60.3	13.2	> 25	14.6	105	17.47
Cc1nc(N2CC[C@@H](NC(=O)c3cnccn3)[C@H](O)C2)c2ccsc2n1 [UCSD-0839060]	–	–	–	–	> 25	–	–	48.7	0.656	> 25	10.4	90.6	-14.64
c1ccc(-c2ccc(C3CNCCO3)nc2)cc1 (centres unmarked) [UCSD-0839460]	–	–	–	–	> 25	–	–	-1.08	89.9	0.22	< 0.000141	80.4	6.27
COc1cccc(-c2noc(C3CCN(Cc4cn(C)nc4C)C3)n2)c1 (centres unmarked) [UCSD-0839537]	–	–	–	–	> 25	5.3	–	4.79	60.2	24	9.44	86.1	–
COc1cc(CNCc2ccnc(N3CCCCC3)c2)cc(OC)c1 [UCSD-0841255]	–	–	–	–	> 25	–	–	36.6	1.69	> 25	11.3	85	-2.79
CC(C)c1n[nH]c(C(=O)Nc2ccccn2)c1Br [UCSD-0842403]	–	–	–	–	> 50	24.9	–	31.1	97.1	< 0.0244	< 0.000282	97.3	–
COc1c(C)cnc(CN2CCC(N(C)C(C)C(N)=O)CC2)c1C (centres unmarked) [UCSD-0844796]	–	–	–	–	> 25	–	–	-0.307	-2.93	> 25	11.7	87.4	1.63
Cc1noc(NC(=O)c2ccc(OC(F)(F)F)cc2)n1 [UCSD-0844950]	–	–	–	–	23.7	4.58	–	50.3	29.1	> 25	8.23	93.2	–
Cc1noc(NC(=O)c2ccc(Br)s2)n1 [UCSD-0844983]	–	–	–	–	> 25	–	–	28.5	-1.54	> 25	14.7	88.4	5.11
CC(C)N(CC(N)=O)Cc1csc(COc2ccc(F)cc2)n1 [UCSD-0845986]	–	–	–	–	23.1	–	–	68.7	5.14	> 25	14.6	97.4	6.02
Cc1cc(CN2CCN(C(c3ccccc3)c3ccccc3)CC2)no1 [UCSD-0846071]	–	–	–	–	> 25	0.21	–	4.68	14.1	> 25	8.97	104	–
Cc1ccoc1C(=O)NC1CCN(Cc2csc3c(F)cccc23)CC1 [UCSD-0846562]	–	–	–	–	> 25	–	–	25.1	3.24	> 25	11.1	–	-2.96
